Measured values: article PMC4774911, “Biochemical Screening of Five Protein Kinases from Plasmodium falciparum against 14,000 Cell-Active Compounds” (PLoS ONE, 2016)
Several values for one entry are separate records, joined by “and”; a condition that tells them apart may be missing. Equal entries are not always repeated.

Key:
Experiment in all cases: biochemical
Parameters in all cases: endogenous in cells; host or cells: K562 cell extract; species or system K562 (extract); replicate k of n = 2 (each experiment ID is one independent experiment; two experiment IDs per compound)
Conditions in all cases: read-out: KDapp
[1] = target: MAPK9 (Homo sapiens, UniProt P45984)
Sequence of MAPK9 (P45984 whole entry): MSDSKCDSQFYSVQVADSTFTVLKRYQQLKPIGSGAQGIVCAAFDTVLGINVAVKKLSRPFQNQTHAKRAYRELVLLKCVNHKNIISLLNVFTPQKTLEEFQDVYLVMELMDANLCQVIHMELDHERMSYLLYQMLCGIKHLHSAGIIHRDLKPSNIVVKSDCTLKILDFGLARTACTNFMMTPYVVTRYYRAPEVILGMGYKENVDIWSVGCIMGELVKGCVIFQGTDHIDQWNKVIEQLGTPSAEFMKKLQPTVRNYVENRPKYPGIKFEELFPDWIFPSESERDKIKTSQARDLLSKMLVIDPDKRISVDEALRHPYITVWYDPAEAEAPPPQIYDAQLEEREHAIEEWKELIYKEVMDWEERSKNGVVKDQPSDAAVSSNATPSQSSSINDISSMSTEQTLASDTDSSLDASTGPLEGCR

[2] = target: T1, ACVR1B (Homo sapiens, UniProt P36896)
T1 sequence (P36896 1-505): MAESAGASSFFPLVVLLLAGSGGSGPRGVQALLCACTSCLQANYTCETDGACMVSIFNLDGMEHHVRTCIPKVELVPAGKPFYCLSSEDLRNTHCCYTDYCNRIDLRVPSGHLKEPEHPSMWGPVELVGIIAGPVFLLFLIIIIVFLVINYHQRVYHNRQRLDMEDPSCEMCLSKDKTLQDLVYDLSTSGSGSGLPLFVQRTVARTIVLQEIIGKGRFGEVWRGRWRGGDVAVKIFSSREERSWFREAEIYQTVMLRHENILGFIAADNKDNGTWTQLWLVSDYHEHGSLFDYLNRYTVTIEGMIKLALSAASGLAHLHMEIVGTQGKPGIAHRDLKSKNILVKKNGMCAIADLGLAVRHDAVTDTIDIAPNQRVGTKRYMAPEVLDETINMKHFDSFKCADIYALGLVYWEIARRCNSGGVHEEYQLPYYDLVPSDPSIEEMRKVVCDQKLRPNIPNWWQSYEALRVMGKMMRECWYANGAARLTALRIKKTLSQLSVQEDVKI

[3] = target: EIF2AK4 (Homo sapiens, UniProt Q9P2K8)
Sequence of EIF2AK4 (Q9P2K8 whole entry): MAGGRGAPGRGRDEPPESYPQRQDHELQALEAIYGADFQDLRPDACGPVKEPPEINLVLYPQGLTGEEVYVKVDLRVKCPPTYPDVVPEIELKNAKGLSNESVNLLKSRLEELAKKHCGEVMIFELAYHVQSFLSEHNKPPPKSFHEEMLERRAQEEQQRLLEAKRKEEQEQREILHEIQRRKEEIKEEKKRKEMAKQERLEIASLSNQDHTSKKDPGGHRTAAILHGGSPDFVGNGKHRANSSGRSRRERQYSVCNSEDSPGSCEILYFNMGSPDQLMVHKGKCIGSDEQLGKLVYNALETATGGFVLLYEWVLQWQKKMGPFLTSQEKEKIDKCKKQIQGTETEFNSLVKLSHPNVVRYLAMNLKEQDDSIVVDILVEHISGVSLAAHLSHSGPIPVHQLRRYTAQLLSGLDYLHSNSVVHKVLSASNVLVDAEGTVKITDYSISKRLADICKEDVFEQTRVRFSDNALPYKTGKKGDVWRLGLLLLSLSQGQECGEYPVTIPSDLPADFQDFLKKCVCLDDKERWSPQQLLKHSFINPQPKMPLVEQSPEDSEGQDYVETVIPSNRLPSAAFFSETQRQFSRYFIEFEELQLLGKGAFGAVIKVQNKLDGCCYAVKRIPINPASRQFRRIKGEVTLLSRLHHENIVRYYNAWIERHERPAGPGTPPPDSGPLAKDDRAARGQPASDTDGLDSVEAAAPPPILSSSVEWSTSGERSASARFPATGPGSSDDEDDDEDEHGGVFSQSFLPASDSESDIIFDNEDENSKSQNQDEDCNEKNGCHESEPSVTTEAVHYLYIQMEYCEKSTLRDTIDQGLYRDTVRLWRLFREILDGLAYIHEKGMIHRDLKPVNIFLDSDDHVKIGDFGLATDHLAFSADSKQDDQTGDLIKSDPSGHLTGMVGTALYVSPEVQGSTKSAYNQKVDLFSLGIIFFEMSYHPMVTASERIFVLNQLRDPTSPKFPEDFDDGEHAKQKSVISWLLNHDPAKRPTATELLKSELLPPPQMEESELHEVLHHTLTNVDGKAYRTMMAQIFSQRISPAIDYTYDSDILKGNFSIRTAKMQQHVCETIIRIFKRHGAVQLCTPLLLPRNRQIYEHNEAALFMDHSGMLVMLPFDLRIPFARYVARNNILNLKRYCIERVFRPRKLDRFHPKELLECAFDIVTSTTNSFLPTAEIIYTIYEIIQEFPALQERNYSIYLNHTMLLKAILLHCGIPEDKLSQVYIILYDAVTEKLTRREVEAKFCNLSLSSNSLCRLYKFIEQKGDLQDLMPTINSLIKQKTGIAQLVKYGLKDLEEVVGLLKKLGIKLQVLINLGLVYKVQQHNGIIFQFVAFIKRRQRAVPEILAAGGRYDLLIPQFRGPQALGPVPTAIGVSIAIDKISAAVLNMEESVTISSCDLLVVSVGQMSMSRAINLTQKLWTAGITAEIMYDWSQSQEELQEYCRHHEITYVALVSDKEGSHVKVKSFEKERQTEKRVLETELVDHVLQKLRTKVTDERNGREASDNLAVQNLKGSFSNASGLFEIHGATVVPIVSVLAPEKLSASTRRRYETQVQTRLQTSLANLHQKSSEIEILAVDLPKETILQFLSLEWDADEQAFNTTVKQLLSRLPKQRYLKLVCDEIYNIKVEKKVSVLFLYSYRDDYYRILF

[4] = target: CHEK2 (Homo sapiens, UniProt O96017)
[5] = target: FER (Homo sapiens, UniProt P16591)
Sequence of FER (P16591 whole entry): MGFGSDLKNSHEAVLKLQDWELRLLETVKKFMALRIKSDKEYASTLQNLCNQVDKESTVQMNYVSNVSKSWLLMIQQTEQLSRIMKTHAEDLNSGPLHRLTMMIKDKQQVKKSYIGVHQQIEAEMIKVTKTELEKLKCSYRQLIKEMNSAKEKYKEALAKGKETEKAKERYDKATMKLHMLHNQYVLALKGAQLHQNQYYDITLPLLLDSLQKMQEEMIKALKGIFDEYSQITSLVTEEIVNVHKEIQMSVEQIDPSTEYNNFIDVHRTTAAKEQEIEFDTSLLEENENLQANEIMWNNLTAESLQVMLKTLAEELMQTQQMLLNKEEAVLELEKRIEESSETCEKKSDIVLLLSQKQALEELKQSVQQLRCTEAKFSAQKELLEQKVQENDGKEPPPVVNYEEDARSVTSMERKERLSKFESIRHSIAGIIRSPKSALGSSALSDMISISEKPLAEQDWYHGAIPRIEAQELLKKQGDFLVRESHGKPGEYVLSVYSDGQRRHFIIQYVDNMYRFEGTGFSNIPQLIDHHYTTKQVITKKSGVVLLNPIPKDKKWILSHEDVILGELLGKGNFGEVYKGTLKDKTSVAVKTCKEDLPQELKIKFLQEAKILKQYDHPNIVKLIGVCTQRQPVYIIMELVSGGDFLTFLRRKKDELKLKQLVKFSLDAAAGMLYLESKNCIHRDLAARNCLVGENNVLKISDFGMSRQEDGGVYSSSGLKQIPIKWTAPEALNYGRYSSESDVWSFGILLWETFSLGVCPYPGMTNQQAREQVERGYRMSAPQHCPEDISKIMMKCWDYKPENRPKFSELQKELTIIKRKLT

[6] = target: FYN (Homo sapiens, UniProt P06241)
Sequence of FYN (P06241 whole entry): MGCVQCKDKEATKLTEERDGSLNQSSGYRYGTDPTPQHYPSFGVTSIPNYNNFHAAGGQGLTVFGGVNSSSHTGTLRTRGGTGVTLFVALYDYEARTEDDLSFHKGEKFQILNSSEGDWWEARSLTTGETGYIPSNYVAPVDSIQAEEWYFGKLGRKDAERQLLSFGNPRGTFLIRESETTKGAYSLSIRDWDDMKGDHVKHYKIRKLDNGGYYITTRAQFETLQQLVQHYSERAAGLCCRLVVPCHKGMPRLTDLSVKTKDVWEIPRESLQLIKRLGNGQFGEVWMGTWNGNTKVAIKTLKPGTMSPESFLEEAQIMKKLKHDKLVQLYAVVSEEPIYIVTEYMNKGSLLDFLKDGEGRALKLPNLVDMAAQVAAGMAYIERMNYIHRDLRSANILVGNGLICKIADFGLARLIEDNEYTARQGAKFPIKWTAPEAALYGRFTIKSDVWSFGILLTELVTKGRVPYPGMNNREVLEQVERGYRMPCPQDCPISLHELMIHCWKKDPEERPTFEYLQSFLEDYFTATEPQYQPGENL

[7] = target: RIPK2 (Homo sapiens, UniProt O43353)
Sequence of RIPK2 (O43353 whole entry): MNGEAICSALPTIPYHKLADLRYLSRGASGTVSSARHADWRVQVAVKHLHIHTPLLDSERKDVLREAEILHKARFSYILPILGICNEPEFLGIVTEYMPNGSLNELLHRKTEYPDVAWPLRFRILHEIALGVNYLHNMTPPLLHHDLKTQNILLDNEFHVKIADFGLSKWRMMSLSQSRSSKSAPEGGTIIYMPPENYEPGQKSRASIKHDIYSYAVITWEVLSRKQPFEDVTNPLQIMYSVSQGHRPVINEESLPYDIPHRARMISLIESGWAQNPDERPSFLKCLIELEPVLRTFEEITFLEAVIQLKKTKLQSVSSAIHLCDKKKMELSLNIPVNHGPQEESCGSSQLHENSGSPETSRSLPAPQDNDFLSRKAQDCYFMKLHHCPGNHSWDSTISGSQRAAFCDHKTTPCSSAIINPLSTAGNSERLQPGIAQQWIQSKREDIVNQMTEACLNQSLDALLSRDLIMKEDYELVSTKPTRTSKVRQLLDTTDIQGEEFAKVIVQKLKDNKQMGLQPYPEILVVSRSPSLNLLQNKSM

[8] = target: STK39 (Homo sapiens, UniProt Q9UEW8)
[9] = target: MAP3K11 (Homo sapiens, UniProt Q16584)
[10] = target: T2, MYLK3 (Homo sapiens, UniProt Q32MK0)
T2 sequence (Q32MK0 1-819): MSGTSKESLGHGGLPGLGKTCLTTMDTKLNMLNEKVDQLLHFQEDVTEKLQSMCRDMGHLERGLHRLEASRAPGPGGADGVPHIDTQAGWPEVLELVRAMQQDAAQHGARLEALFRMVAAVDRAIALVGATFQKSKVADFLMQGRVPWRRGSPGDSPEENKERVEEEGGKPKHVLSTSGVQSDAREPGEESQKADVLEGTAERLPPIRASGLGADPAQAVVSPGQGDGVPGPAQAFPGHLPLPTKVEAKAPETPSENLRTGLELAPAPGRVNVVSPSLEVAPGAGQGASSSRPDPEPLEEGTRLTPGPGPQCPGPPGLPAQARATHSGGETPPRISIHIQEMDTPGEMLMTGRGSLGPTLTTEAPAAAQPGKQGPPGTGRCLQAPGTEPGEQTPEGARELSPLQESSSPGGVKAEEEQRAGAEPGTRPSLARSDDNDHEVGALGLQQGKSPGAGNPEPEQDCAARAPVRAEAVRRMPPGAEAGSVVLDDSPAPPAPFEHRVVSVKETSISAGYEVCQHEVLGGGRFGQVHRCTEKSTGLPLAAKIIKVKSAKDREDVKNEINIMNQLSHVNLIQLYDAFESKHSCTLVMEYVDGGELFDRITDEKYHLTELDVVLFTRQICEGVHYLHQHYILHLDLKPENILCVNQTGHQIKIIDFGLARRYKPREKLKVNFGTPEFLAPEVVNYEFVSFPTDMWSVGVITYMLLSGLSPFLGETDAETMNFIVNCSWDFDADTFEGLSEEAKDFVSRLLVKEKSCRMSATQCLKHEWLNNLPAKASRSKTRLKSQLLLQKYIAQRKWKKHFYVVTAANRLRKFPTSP

[11] = target: MAPK7 (Homo sapiens, UniProt Q13164)
Sequence of MAPK7 (Q13164 whole entry): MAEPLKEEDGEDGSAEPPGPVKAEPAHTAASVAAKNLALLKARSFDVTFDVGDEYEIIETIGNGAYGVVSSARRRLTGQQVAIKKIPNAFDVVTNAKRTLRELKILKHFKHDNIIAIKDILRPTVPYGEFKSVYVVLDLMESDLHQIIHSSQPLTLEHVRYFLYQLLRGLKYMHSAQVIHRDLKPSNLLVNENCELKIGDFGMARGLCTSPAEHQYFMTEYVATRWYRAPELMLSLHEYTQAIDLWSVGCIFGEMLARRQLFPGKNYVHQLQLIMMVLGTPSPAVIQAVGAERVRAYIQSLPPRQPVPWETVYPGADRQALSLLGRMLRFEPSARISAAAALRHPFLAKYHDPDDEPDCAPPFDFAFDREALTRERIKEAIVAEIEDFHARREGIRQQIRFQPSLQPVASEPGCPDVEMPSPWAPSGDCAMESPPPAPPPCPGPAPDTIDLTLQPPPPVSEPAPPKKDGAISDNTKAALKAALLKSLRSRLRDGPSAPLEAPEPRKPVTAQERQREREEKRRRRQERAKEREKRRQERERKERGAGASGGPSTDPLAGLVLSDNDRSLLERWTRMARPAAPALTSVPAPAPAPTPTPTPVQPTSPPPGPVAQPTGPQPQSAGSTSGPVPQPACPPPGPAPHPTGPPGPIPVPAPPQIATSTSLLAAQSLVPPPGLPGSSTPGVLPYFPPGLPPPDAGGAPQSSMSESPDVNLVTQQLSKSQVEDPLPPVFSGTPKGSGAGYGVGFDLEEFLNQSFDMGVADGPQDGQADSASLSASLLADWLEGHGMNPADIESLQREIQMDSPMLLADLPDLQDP

| SMILES | Kd [1] | Kd [2] | Kd [3] | Kd [4] | Kd [5] | Kd [6] | Kd [7] | Kd [8] | Kd [9] | Kd [10] | Kd [11] |
| --- | --- | --- | --- | --- | --- | --- | --- | --- | --- | --- | --- |
| CN1CCN(c2ccc(Nc3ncc(C#N)c(Nc4ccccc4C(N)=O)n3)cc2)CC1.Cl [TCMDC-134116] | 230 nM and 209 nM | 1630 nM | 168 nM and 147 nM | 139 nM | 79.3 nM and 75.7 nM | 107 nM and 85.4 nM | 273 nM | 58 nM | 46.3 nM | 56 nM and 77.8 nM | 140 nM and 190 nM |
| Cl.NCC1(c2nc(-c3ccc(Cl)c(O)c3)c(-c3ccncc3)[nH]2)CCCCC1 [TCMDC-141154] | 355 nM | 240 nM | – | – | – | 67.6 nM and 60.5 nM | 14.5 nM and 17.5 nM | – | – | – | 549 nM and 949 nM |
| CN(C)CC(O)COc1ccc(Nc2ncc([N+](=O)[O-])c(Nc3ccccc3O)n2)cc1.O=C(O)C(F)(F)F (stereo not shown) [TCMDC-141399] | – | – | 182 nM and 245 nM | 9020 nM | 335 nM and 292 nM | – | – | 4760 nM | 728 nM and 328 nM | 1760 nM and 1510 nM | – |
